Assay results reported in patent US11268950B2, “Use of engineered renal tissues in assays” (Organovo, Inc., priority 2016, dated 2022).
Where “and” joins values, the source holds several entries; their conditions need not be identical. Equal entries are not always repeated. Entries after “also recorded” stand apart in the source; their conditions may differ.

Experiments:
[1] = target: T1, SGLT2 (Homo sapiens, UniProt P31639); assay: Glucose (2-DG) uptake colorimetric assay in 3D PT tissues; type: cell-based
T1 construct: SGLT2 protein expression was detected primarily at the apical surface of RPTEC on 3D PT tissues; endogenous in cells; host or cells: bioprinted 3D PT tissue: primary human RPTEC on an interstitium of primary human renal fibroblasts and HUVEC
T1 sequence (P31639 1-672): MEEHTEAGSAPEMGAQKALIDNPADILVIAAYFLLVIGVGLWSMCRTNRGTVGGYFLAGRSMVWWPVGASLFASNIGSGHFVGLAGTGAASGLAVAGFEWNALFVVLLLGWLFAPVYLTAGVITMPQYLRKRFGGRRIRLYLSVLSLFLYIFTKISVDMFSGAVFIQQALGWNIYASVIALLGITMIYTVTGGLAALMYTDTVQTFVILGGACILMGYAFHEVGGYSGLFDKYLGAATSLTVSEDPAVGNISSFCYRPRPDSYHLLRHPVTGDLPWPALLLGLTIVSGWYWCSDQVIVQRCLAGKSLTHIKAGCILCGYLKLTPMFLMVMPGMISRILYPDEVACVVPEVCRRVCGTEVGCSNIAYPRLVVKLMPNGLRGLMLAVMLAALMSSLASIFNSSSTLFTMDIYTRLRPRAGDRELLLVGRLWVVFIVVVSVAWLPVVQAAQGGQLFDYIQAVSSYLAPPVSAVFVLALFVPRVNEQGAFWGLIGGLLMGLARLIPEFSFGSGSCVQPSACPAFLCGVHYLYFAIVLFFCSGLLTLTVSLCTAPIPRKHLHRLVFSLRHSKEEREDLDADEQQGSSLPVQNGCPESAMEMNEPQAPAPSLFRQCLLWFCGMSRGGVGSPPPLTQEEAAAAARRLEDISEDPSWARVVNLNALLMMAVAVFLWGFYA
Description: Glucose uptake in 3D PT tissues was detected and quantified according to the manufacturer's protocol (Abeam, Cambridge, Mass.). Insulin-Transferrin-Selenium (Gibco, Carlsbad, Calif.) was used to stimulate glucose uptake and canagliflozin (Santa Cruz Biotech, Dallas, Tex.) was used to inhibit SGLT2 function. […] Tissues were then pretreated with 1X insulin or 500 μM canagliflozin for 20 minutes, followed by addition of 1 mM 2-deoxyglucose. Tissues were washed extensively with PBS and lysed in extraction buffer in Precellys® lysis tubes (Precellys, Rockville, Md.).

[2] = system: 3D PT tissues; assay: Passive permeability (Papp) of Lucifer yellow across 3D PT tissues; type: in vitro ADME, human; settings: for Papp: Lucifer yellow 250 μM, 1 h, individual tissues 1-6 and average
Description: Tissues were then dosed with 250 μM Lucifer yellow (Thermo Fisher, Carlsbad, Calif.) to the apical compartment and fresh assay buffer in the basolateral (receiver) compartment. Following incubation for 1 h at 37° C., samples were taken from both the apical and basolateral compartments. Fluorescence in each sample was measured on a BMG plate reader with an excitation filter of 490 nm and an emission filter of 540 nm (BMG Labtech, Cary, N.C.) and normalized to a standard curve for quantification. Papp was calculated with equation 1, where V represents the volume of Lucifer yellow solution, T is the duration of the incubation, D0 is the concentration of Lucifer yellow applied to the cells, and A is the growth area of the Transwell® insert. Papp=(V/A×D0))*(ΔD/ΔT) Equation 1: […]

[3] = system: ExVive™ Human Kidney Tissue; assay: Resazurin conversion in ExVive Human Kidney Tissue; type: cell-based; settings: 0.37-10 ng/ml daily for seven days
Description: (§1) As described in this present disclosure, the ExVive™ Human Kidney Tissue (Organovo, San Diego, Calif.) is a fully human three-dimensional (3D), bioprinted tissue comprised of an apical layer of polarized primary renal proximal tubule epithelial cells (RPTECs) supported by a collagen IV-rich tubulointerstitial interface of primary renal fibroblasts and endothelial cells. As renal fibrosis is a common downstream effect of drug-induced injury, the ExVive™ Human Kidney Tissue was treated with Transforming Growth Factor R (TGFI3 or TGFbeta), a key player of the fibrotic response, for purposes of evaluating tubulointerstitial fibrosis. Thus, to induce renal fibrosis, a healthy ExVive™ Human Kidney Tissue was treated with TGFI3, a key player of the fibrotic response. In particular, each healthy ExVive™ Human Kidney Tissue was dosed daily for seven days with vehicle control, 0.37 ng/ml TGFβ, 1.1ng/m1 TGFβ, 3.3 ng/ml TGFβ, or 10 ng/m1 TGFβ, respectively. Subsequently, after the ExVive™ Human Kidney Tissue was treated with TGFβ, an assessment of the viability and epithelial cell functions of this ExVive™ Human Kidney Tissue was conducted. […] Data shown is the average of 3 tissue samples per condition and is represented as the fold change relative to the vehicle control. *p<0.05; ***p<0.001 for each condition compared to vehicle control.

[4] = system: ExVive™ Human Kidney Tissue; assay: Fibrosis-related gene expression by semi-quantitative RTPCR; type: cell-based; settings: 0.37-10 ng/ml daily for seven days
Description: Fibrosis-related gene expression was also assessed on this ExVive™ Human Kidney Tissue treated with TGFβ. […] Data shown is the average of 3 tissue samples per condition. *p<0.0001 for each condition compared to vehicle control.

[5] = system: ExVive™ Human Kidney Tissue; assay: GGT activity in ExVive Human Kidney Tissue; type: cell-based; settings: 0.37-10 ng/ml daily for seven days
Description: as §1

[6] = system: ExVive™ Human Kidney Tissue; assay: ECM deposition (Gomori's Trichrome, Sirius red) in ExVive tissue; type: cell-based; settings: 0.37-10 ng/ml daily for seven days
Text: Data represents the average of 4 technical replicates per tissue, 3 tissues per condition and is represented as the fold change relative to the vehicle control following normalization to total protein content as measured by Fast Green staining. *p<0.05 for each condition compared to vehicle control.

[7] = system: 3D PT tissues; assay: GGT activity of 3D PT tissues (epithelial function); type: cell-based, human; settings: 5 μM cisplatin, daily for 7 days
Description: GGT activity was measured according to the manufacturer's protocol (Sigma Aldrich, St. Louis, Mo.). Tissues were washed twice with DPBS and lysed in GGT assay buffer in a Precellys® lysis tube (Precellys, Rockville, Md.). Lysate was assessed for GGT activity by comparison to a standard curve integration of absorbance normalized for volume and duration of incubation period at 37° C. using GraphPad Prism® software (GraphPad, San Diego, Calif.). Data shown represent the average GGT activity in mIU/ml for analysis of GGT function over time, or percent relative to vehicle for toxicity studies.

[8] = system: 3D PT tissues; assay: PCNA staining, RPTEC proliferation in 3D PT tissues; type: cell-based, human; settings: daily for 7 days
Description: 3D PT were fixed overnight in 2% paraformaldehyde (Electron Microscopy Sciences, Hatfield, Pa.). Tissues were oriented for transverse sectioning by pre-embedding in HistoGel™ (Thermo Fisher, Carlsbad, Calif.) and were then dehydrated and infiltrated with paraffin by automated processing on a Tissue-Tek VIP® tissue processing system (Sakura Finetek USA, Torrance, Calif.). Tissues were sectioned at 5 μM on a Leica® Reichert-Jung® Histocut microtome (Leica Biosystems, Buffalo Grove, Ill.). Hematoxylin and eosin (H&E) or Gomori's trichrome (TCM) stains were generated using a Leica® Autostainer XL (Leica Biosystems, Buffalo Grove, Ill.) according to manufacturer's instructions. Immunohistochemistry was performed as previously described (King et al., 2013) using the primary antibodies in Table 1. Following overnight incubation with primary antibodies at 4° C., sections were stained with AlexaFluor®-conjugated secondary antibodies (Thermo Fisher, Carlsbad, Calif.) at 1:200 dilution. For P-gp and SGLT2 detection, tyramide signal amplification was performed according to the manufacturer's instructions (Thermo Fisher, Carlsbad, Calif.). Slides were counterstained and mounted with FluoroGel II with DAPI (Electron Microscopy Sciences, Hatfield, Pa.). H&E and TCM images were acquired on a Zeiss® Axioskop with Zeiss® Zen software (Zeiss Microscopy, Thornwood, NY). Immunofluorescent images were acquired on a Zeiss® Axio® Imager A2 with Zeiss® Zen software.

[9] = system: 3D PT tissues; assay: LDH release from 3D PT tissues; type: cell-based, human; settings: 5 μM cisplatin alone, treatment day 5 (peak)
Description: Lactate dehydrogenase (LDH) activity assay was performed according to the manufacturer's protocol (Abcam, Cambridge, Mass.). Conditioned media was collected from 3D PT tissues and further diluted in fresh media to ensure that the LDH activity of the sample was within the linear range of the assay. Samples were measured on a microplate reader (BMG Labtech, Cary, N.C.). LDH activity was determined by standard curve integration of absorbance normalized for volume and duration using GraphPad Prism® software (GraphPad, San Diego, Calif.). Data shown represent the fold change in LDH activity relative to vehicle control for each day of sampling.

[10] = system: 3D PT tissues; assay: H&E histology of 3D PT tissues; settings: daily for 7 days; 5 μM cisplatin, 1 mM cimetidine
Description: 3D PT were fixed overnight in 2% paraformaldehyde (Electron Microscopy Sciences, Hatfield, Pa.). Tissues were oriented for transverse sectioning by pre-embedding in HistoGel™ (Thermo Fisher, Carlsbad, Calif.) and were then dehydrated and infiltrated with paraffin by automated processing on a Tissue-Tek VIP® tissue processing system (Sakura Finetek USA, Torrance, Calif.). Tissues were sectioned at 5 μM on a Leica® Reichert-Jung® Histocut microtome (Leica Biosystems, Buffalo Grove, Ill.). Hematoxylin and eosin (H&E) or Gomori's trichrome (TCM) stains were generated using a Leica® Autostainer XL (Leica Biosystems, Buffalo Grove, Ill.) according to manufacturer's instructions. Immunohistochemistry was performed as previously described (King et al., 2013) using the primary antibodies in Table 1. Following overnight incubation with primary antibodies at 4° C., sections were stained with AlexaFluor®-conjugated secondary antibodies (Thermo Fisher, Carlsbad, Calif.) at 1:200 dilution. For P-gp and SGLT2 detection, tyramide signal amplification was performed according to the manufacturer's instructions (Thermo Fisher, Carlsbad, Calif.). Slides were counterstained and mounted with FluoroGel II with DAPI (Electron Microscopy Sciences, Hatfield, Pa.). H&E and TCM images were acquired on a Zeiss® Axioskop with Zeiss® Zen software (Zeiss Microscopy, Thornwood, NY). […]

[11] = humans, Zhang and Zhou, 2012; cited from earlier work
[12] = system: 3D PT tissues; settings: OCT2 inhibition by cimetidine
Description: 3D PT Novo View™ Tissues were fabricated as described (Nguyen et al., 2016). Briefly, cultured renal fibroblasts and HUVEC were combined in a 50:50 ratio and resuspended in NovoGel® Bio-Ink, and then bioprinted onto 0.4 μm Transwell® clear polyester membrane inserts in a 24-well plate (Coming Costar, Coming, NY) using a NovoGen Bioprinter® Instrument (Organovo Inc., San Diego, Calif.) with previously established protocols (Forgacs et al., 2012; Murphy et al., 2015; Nguyen et al., 2016). Following bioprinting, NovoView′ Tissues were cultured in NovoView™ Kidney Media (Organovo, San Diego, Calif.). On culture day 3, primary RPTEC cells were added to the tissues in a suspension of 1.25×10^6 cells/ml in RPTEC media. […]
Assessment of metabolic activity as a surrogate for tissue viability and health was performed by alamarBlue™ assay according to the manufacturer's protocol (Thermo Fisher, Carlsbad, Calif.). […] After incubation, the alamarBlue′ solution was removed and fluorescence was measured on a BMG Labtech POLARstar® Omega reader (Cary, N.C.) with an excitation filter of 560 nm and an emission filter of 590 nm. Graphed data represent the percent relative fluorescence units (RFU) compared to blank for metabolic activity over time, or the percent RFU compared to vehicle control for toxicity studies.

[13] = target: T2, ACE (Homo sapiens, UniProt P12821); assay: ACE function: conversion of angiotensin I to angiotensin II (ELISA); type: cell-based; settings: after 5 ng/ml human angiotensin I for 24 h
T2 construct: ACE protein was detected in both conditioned media and tissue lysates, with higher detection in the tissue lysates; endogenous in cells; host or cells: bioprinted 3D PT tissue: primary human RPTEC on an interstitium of primary human renal fibroblasts and HUVEC
T2 sequence (P12821 30-1306): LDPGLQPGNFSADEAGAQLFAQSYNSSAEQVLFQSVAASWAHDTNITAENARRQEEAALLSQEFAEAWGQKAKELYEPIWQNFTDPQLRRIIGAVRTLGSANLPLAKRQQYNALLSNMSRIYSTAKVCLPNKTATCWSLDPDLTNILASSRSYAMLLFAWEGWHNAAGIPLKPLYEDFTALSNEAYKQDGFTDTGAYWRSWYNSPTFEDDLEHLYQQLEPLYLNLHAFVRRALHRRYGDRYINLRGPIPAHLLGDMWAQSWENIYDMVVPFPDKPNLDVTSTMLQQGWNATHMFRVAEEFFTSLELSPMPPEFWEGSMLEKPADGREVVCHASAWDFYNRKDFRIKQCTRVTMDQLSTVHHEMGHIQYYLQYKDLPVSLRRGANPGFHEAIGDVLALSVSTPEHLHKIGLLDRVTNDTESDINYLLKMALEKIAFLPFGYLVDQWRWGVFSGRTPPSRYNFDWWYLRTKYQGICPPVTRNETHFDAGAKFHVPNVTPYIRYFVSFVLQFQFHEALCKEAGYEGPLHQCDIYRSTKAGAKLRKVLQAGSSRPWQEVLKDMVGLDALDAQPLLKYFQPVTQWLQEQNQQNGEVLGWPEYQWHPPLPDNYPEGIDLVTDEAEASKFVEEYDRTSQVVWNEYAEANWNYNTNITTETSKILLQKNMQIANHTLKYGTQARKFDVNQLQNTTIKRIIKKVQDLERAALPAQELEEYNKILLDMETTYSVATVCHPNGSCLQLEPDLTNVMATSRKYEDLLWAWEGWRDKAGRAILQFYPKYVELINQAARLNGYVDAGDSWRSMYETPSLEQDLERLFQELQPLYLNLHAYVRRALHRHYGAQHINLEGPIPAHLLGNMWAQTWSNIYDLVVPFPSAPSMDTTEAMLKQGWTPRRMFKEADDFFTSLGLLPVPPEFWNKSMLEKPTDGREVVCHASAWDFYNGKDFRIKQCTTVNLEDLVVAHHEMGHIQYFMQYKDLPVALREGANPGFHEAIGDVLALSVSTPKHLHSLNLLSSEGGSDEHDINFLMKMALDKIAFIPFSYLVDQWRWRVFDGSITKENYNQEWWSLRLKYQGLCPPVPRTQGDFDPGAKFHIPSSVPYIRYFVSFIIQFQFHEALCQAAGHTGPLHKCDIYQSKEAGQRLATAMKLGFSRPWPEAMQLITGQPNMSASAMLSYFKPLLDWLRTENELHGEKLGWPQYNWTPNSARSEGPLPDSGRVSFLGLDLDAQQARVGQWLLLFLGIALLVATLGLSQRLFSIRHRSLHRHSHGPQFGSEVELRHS
Description: To evaluate ACE enzyme function, 3D PT tissues were treated for 24 h with 5 ng/ml human angiotensin I (Abeam, Cambridge, Mass.) and angiotensin II was then detected using a competitive ELISA kit from Sigma per the manufacturer's instructions (Sigma-Aldrich, St. Louis, Mo.). Plates were read at 450 nm within 30 minutes of addition of the stop solution (BMG Labtech, Cary, N.C.). The concentration of angiotensin II in the test samples was determined by comparison to the standard curve using GraphPad Prism® software (GraphPad, San Diego, Calif.).

[14] = target: T3, P-gp (Homo sapiens, UniProt P08183); assay: Rhodamine 123 transport / P-gp efflux in 3D PT tissues; type: cell-based; settings: image quantification, 2 h, 5 μM zosuquidar
T3 construct: P-gp protein expression was detected at the apical surface of the RPTEC cells in the 3D PT model; endogenous in cells; host or cells: bioprinted 3D PT tissue: primary human RPTEC on an interstitium of primary human renal fibroblasts and HUVEC
T3 sequence (P08183 whole entry): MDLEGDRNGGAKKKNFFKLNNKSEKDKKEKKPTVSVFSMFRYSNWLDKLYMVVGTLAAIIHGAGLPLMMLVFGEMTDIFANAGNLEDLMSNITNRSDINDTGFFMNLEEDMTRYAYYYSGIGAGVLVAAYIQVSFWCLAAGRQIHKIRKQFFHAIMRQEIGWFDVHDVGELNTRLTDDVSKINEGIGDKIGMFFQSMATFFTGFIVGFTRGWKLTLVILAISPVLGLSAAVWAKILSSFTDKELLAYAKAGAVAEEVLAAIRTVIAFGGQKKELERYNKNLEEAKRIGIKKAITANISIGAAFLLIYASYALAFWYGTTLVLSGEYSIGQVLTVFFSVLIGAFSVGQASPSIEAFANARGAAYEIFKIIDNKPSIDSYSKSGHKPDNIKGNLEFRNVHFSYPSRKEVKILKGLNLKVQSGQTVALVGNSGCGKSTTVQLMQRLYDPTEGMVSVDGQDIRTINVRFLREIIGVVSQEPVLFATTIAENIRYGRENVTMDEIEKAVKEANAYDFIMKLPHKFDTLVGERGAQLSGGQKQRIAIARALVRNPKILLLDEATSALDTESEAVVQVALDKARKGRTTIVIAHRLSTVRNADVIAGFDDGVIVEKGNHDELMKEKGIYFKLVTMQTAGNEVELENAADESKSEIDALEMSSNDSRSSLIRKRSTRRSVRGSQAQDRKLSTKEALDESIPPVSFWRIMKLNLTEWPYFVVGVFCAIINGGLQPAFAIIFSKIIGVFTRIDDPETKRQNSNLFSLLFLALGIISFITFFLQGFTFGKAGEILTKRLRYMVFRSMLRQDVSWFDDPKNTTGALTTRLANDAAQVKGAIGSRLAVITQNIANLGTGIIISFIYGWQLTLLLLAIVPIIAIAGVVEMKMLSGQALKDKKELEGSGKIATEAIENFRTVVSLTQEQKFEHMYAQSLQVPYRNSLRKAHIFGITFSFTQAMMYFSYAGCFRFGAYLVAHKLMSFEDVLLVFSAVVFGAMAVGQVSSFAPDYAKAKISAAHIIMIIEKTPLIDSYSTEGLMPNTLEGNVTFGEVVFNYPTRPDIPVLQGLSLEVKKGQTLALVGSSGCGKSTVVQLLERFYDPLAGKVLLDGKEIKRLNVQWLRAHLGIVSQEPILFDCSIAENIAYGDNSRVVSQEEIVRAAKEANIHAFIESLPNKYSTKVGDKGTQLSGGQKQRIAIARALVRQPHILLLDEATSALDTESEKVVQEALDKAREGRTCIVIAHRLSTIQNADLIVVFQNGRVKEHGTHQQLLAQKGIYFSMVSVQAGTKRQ
Description: Both apical and basolateral sides of tissues were then pre-incubated for 20 min at 37° C. in assay buffer in the presence or absence of 5 μM zosuquidar (Sigma Aldrich, St. Louis, Mo.). Following pre-treatment, tissues were dosed on the basolateral side with 1 μM rhodamine 123 (Molecular Probes, Eugene, Oreg.) with or without 5 μM zosuquidar for 2h at 37° C. After incubation, the tissues were washed with cold assay buffer, fixed with 2% PFA, and cryosectioned. Images were captured at the same exposure time across all conditions. Fluorescence intensity, corrected for background and relative area, was calculated in Image J (National Institutes of Health, Bethesda, Md.) and graphed as fold change relative to control using GraphPad Prism® software (GraphPad, San Diego).

Question: Which “decrease of insulin-induced intracellular 2-DG” value ([1]; normal tissue media, co-administration with insulin, 500 μM canagliflozin) does the source give for `Cc1ccc([C@@H]2O[C@H](CO)[C@@H](O)[C@H](O)[C@H]2O)cc1Cc1ccc(-c2ccc(F)cc2)s1` [canagliflozin] here?
Answer: 50%

Question: What about the “effect on insulin-induced glucose uptake” value ([1]; tissues starved overnight, 500 μM canagliflozin) of the same molecule?
Answer: significantly reduced by canagliflozin to levels indistinguishable from the control tissues

Question: With Lucifer yellow as the molecule, how does the Papp [2] read?
Answer: 2.93e-06 cm/s and 2.63e-06 cm/s and 2.73e-06 cm/s and 2.66e-06 cm/s and 3.74e-06 cm/s and 3.11e-06 cm/s

Question: What about the Papp ([2]; mean) of the same molecule?
Answer: 2.97 ± 0.17 ×10^−6 cm/s

Question: And the “average Papp” value ([2]; Lucifer yellow, 3D PT tissues)?
Answer: 2.97e-06 cm/s

Question: For “insulin: Insulin-Transferrin-Selenium (Gibco) used to stimulate glucose uptake”, which “increase in intracellular 2-DG” value ([1]; tissues in normal tissue media) is on record?
Answer: 4 fold

Question: And the “increase in glucose uptake” value ([1]; tissues starved overnight)?
Answer: 8 fold

Question: For TGFβ, which “Resazurin conversion (overall tissue metabolic activity)” value [3] is on record?
Answer: No statistically significant differences

Question: And the “fibrosis-related gene expression (COL1A1, CTGF, FAP, PDGFRB)” value [4]?
Answer: induction of the fibrotic markers; also recorded: increase in the expression of fibrosis-related genes

Question: What about the “GGT activity (epithelial cell function)” value [5] of the same molecule?
Answer: Statistically significant reduction in RPTEC function was detected with higher doses; also recorded: loss of epithelial cell function at the highest dose

Question: What about the “tissue thickness and extracellular matrix deposition” value [6] of the same molecule?
Answer: induces tissue thickening and increased extracellular matrix deposition; also recorded: extensive ECM deposition in the interstitium

Question: With `N.N.[Cl][Pt][Cl]` [cisplatin] as the molecule, how does the “reduction in GGT activity” value [7] read?
Answer: ~50%

Question: And the “RPTEC proliferation (PCNA)” value [8]?
Answer: dose-dependent proliferative response; also recorded: dose-dependent increase in proliferating RPTEC

Question: What about the “LDH release, increase over vehicle controls” value [9] of the same molecule?
Answer: 3 fold

Question: And the “epithelial morphology (H&E)” value [10]?
Answer: more squamous morphology and loss of nuclei

Question: What does the source list for `CN/C(=N/CCSCc1nc[nH]c1C)NC#N` [cimetidine]?
Answer: urinary cystatin C following cisplatin administration [11]: decreased urinary cystatin C; RPTEC proliferation (PCNA) [8]: low levels of RPTEC proliferation; protection against cisplatin-induced loss of viability and epithelial function [12]: successfully protected

Question: With “angiotensin I: human angiotensin I (Abcam), ACE substrate (DRVYIHPFHL; Angiotensin-1; UniProt P01019 25-34, looked up)” as the molecule, how does the “angiotensin II detected” value [13] read?
Answer: 0.4 pg/mL

Question: Which “increase in fluorescence over control tissues” value [14] does the source give for rhodamine 123 [R123] here?
Answer: 4 fold
